Values after ≈ are worked out from the molar mass of the structure shown.
conditions: buffer; pH 7.4; 200.0 µM

| Compound | solubility kinetic [µg/mL] |
| --- | --- |
| COc1ccc(CNC(=O)c2cc3cc(OC)ccc3oc2=O)cc1 | < 0.7 |
| COC(=O)c1ccccc1NC(=S)N1CCOCC1 | 40.1 (≈ 143 µM) |
| O=C(CC1Sc2ccccc2NC1=O)NCc1ccccc1 (centres undefined) | 0.4 (≈ 1.28 µM) |
| COC(=O)c1ccccc1NC(=O)CN1CCC(C)CC1 | 30.8 (≈ 106 µM) |
| O=c1cc(C(F)(F)F)nc(-c2ccccc2OC(F)(F)F)[nH]1 | > 48.6 |
| Fc1ccc(N2CCN(C3CCC(c4ccccc4)CC3)CC2)cc1 (centres undefined) | 1.1 (≈ 3.25 µM) |
| O=C(Nc1ccccc1)N1CCCN(c2ccc(C(F)(F)F)cn2)CC1 | 9.7 (≈ 26.6 µM) |
| COc1ccc(C(=O)NCCNC(=O)c2ccc(C)nc2)cc1 | > 47 |
| O=C(CNC(=O)c1ccccc1F)NCc1ccncc1 | > 43.1 |
| CCCc1nc(SC)[nH]c(=O)c1C | > 29.7 |
| Nc1ccc(C(=O)O)cc1 | > 20.6 |
| CC(C)OC(=O)NCCOC(=O)Nc1ccccc1Cl | > 45.1 |
| CCOC(=O)c1c(CC(C)C)csc1N | 2.1 (≈ 9.24 µM) |
| CC(=O)N1CCN=C1SCc1cccc(F)c1 | 36.5 (≈ 145 µM) |
| O=C(NCCS(=O)(=O)NC1CCCC1)c1ccccc1 | > 44.5 |
| COc1ccc(N/C=C/C(=O)c2ccccc2)cc1 | < 0.5 |
| COC(=O)c1c(C)nc2nonc2c1N | 30 (≈ 144 µM) |
| O=C1CNC(=S)N1C1CCCCCC1 | 23.8 (≈ 112 µM) |
| COc1ccc(C(=O)NC(C(=O)NCC2CCCO2)C(C)C)cc1 (centres undefined) | > 50.2 |
| COc1ccccc1CNC(=O)CS(=O)(=O)c1ccccc1 | 44 (≈ 138 µM) |
| O=C(O)CCSC1CC(=O)N(c2ccccc2)C1=O (centres undefined) | > 41.9 |
| CCS(=O)(=O)N1CCC(C(=O)Oc2ccc(Cl)cc2)CC1 | 9.9 (≈ 29.8 µM) |
| CCN(CC)C(=O)CN1CCC(c2nc3cc(C)c(C)cc3[nH]2)CC1 | > 51.4 |
| O=[N+]([O-])c1ccc(NCCCN2CCOCC2)c2ncccc12 | 2.5 (≈ 7.9 µM) |

| Compound | solubility kinetic [µg/mL] |
| --- | --- |
| CCCNC(=O)CN(C)CC(=O)Nc1ccccc1C#N | > 43.3 |
| O=C(NCc1ccc(F)cc1)C1CC(=O)N(Cc2ccco2)C1 (centres undefined) | > 47.4 |
| N#CC(=C=[N-])c1nc2ccccc2nc1-[n+]1cccc(NC(=O)c2cccs2)c1 | 1.5 (≈ 3.78 µM) |
| Cc1cccc(/C=C(\C(=O)O)c2ccc(S(=O)(=O)N3CCCC3)s2)c1 | > 56.6 |
| COc1ccc2c(CC(=O)Nc3nccs3)coc2c1 | 7 (≈ 24.3 µM) |
| CCOc1ccc(N/C=C/C(=O)c2ccccc2)cc1 | 0.8 (≈ 2.99 µM) |
| CCC(C(=O)Nc1ccc([N+](=O)[O-])cn1)c1ccccc1 (centres undefined) | 39.3 (≈ 138 µM) |
| CC(=O)c1ccc(N2CCN(C(C)C(=O)Nc3ccc4c(c3)OCCO4)CC2)cc1 (centres undefined) | 5.1 (≈ 12.5 µM) |
| CSCCC1NC(=O)N(CC(=O)Nc2cc(C)on2)C1=O (centres undefined) | > 46.9 |
| COC(=O)C1CCN(CC(=O)NC(=O)NC2CCCCC2)CC1 | > 48.8 |
| Cc1ccc(OCC(=O)Nc2ccc3c(c2)C(=O)NC3=O)c(C)c1 | 0.6 (≈ 1.85 µM) |
| CN1CCN(c2ccccc2NC(=O)c2ccccc2F)CC1 | > 47 |
| O=C1COc2ccccc2N1Cc1c(F)cccc1Cl | 20 (≈ 68.6 µM) |
| Cc1cccc(N2CCN(C(=O)c3ccc4nccnc4c3)CC2C)c1 (centres undefined) | > 52 |
| CNC(=O)c1csc(-c2cccs2)n1 | 33.3 (≈ 148 µM) |
| Cc1ccccc1Nc1nc(N)nc(COC(=O)c2ccco2)n1 | > 48.8 |
| CC(=O)c1cccc(NC(=O)c2cc(C)nn2-c2ccccc2)c1 | > 47.9 |
| O=C1C2C3C=CC(CC3)C2C(=O)N1c1ccc(Cl)cc1Cl (centres undefined) | 9.7 (≈ 30.1 µM) |
| Cc1cnc(C(=O)OCC(=O)Nc2ccc(C)c(S(=O)(=O)N3CCOCC3)c2)cn1 | > 65.2 |
| Cl.NC(=NCc1ccccc1)c1cccc([N+](=O)[O-])c1 | > 43.8 |
| CN(C)CCCNc1nc(-c2ccccc2)nc2ccccc12.Cl | 44.1 |
| Cc1ccc(NS(=O)(=O)c2cccc(C(=O)NC3CC3)c2)c(C)c1 | 5.8 (≈ 16.8 µM) |
| O=C(COC(=O)/C=C/c1ccccc1)NCc1cccs1 | 17.7 (≈ 58.7 µM) |
| CC1CCCC(NC(=O)CN2C(=O)NC(Cc3c[nH]c4ccccc34)C2=O)C1C (centres undefined) | > 59.5 |

| Compound | solubility kinetic [µg/mL] |
| --- | --- |
| CC(=O)Nc1ccc(S(=O)(=O)NC(C)CCc2ccccc2)cc1 (centres undefined) | > 52 |
| CCOc1ncccc1C(=O)N=c1sccn1C | > 39.5 |
| O=C(O)CC(CC(=O)Nc1ccc(Oc2ccccc2)cc1)c1ccccc1 (centres undefined) | > 56.3 |
| O=C(CCCc1cccs1)NCCc1c[nH]c2ccccc12 | 44.9 (≈ 144 µM) |
| O=C(NC1CCCCNC1=O)c1ccco1 (centres undefined) | > 33.3 |
| CCCCC(=O)Nc1ccc(NC(=O)c2cnccn2)cn1 | > 44.9 |
| NS(=O)(=O)c1ccc(CCNC(=O)CSCc2ccccc2)cc1 | 42.6 (≈ 117 µM) |
| Br.c1ccc(NC2=NCCCS2)cc1 | > 41 |
| CCC(=O)Nc1ccc(C(=O)OCc2ccccc2)cc1 | 8.6 (≈ 30.4 µM) |
| Cc1ccc2[nH]c(=O)cc(C(=O)OCC(=O)c3ccc(F)cc3)c2c1 | 1.5 (≈ 4.42 µM) |
| O=c1[nH]c(/C=C/c2ccc([N+](=O)[O-])cc2)c([N+](=O)[O-])c(=O)[nH]1 | 24.9 (≈ 81.8 µM) |
| Cc1ccc(C2CC3CCC(C2)N3Cc2ccccc2F)cc1 (centres undefined) | 26.8 (≈ 86.6 µM) |
| NS(=O)(=O)c1cccc(NC(=O)COC(=O)/C=C/c2nc3ccccc3s2)c1 | 22.8 (≈ 54.6 µM) |
| Cc1ccc(NC(=O)c2ccc(C(=O)c3ccccc3)cc2)nc1 | 5.1 (≈ 16.1 µM) |
| Cc1ccc(C(=O)Nc2ccccc2)cc1S(=O)(=O)N1CCN(C)CC1 | 31.8 (≈ 85.1 µM) |
| N#Cc1c(-c2ccc(F)cc2)c2c([nH]c1=O)-c1ccccc1OC2 | 1.2 (≈ 3.77 µM) |
| CC(C(=O)NCc1ccccc1Cl)N1C(=O)c2ccccc2C1=O (centres undefined) | > 51.4 |
| CC(CCc1ccccc1)NC(=O)CCC(=O)N1CCC(C(=O)O)CC1 (centres undefined) | > 54.1 |
| O=C(c1ccccc1)N1CCN(C(=O)c2ccc3c(c2)OCO3)CC1 | > 50.8 |
| O=C(NCc1ccccc1)c1ccc(Cl)c(S(=O)(=O)N2CCCC2)c1 | 33.9 (≈ 89.5 µM) |
| C=C(C)CN1C(=O)C2(OCCO2)c2cc(Br)ccc21 | 41.1 (≈ 127 µM) |
| CCC(C)NS(=O)(=O)c1cc2c3c(c1)CCN3C(=O)CC2 (centres undefined) | > 46.3 |
| Cc1ccc(S(=O)(=O)N(Cc2ccccc2)C(C)C)cc1 | 5 (≈ 16.5 µM) |
| CCOC(=O)N1CCN(C(=O)COC(=O)c2ccc(O)cc2O)CC1 | > 52.9 |

| Compound | solubility kinetic [µg/mL] |
| --- | --- |
| COc1ccc(-c2nc3ccccc3c(=O)[nH]2)cc1 | 2.2 (≈ 8.72 µM) |
| O=C(NC(=O)c1ccccc1)OCCN1C(=O)c2ccccc2C1=O | > 50.7 |
| CCOc1ccc(-n2c(C)c(C(C)=O)c3cc(OC(C)=O)ccc32)cc1 | < 0.8 |
| O=C(CSc1ncccn1)NC(=O)NCc1ccco1 | 40.8 (≈ 140 µM) |
| CC1=C(C(=O)c2ccccc2)C(c2ccc(O)cc2)NC(=S)N1 (centres undefined) | 21.8 (≈ 67.2 µM) |
| COc1ccc(NC(=O)CCCC2CCCCC2)c(OC)c1 | < 0.7 |
| Fc1ccc2nc3c(nc2c1)CCCC3 | 13.3 (≈ 65.8 µM) |
| CC(CCc1ccccc1)NCC#N.Cl (centres undefined) | 31.1 |
| Cc1[nH]c2ccccc2c1SCC(=O)N1CCC(C)CC1 | > 45.4 |
| Oc1ccc(F)c2cccnc12 | 5 (≈ 30.6 µM) |
| N#C/C=C(/c1ccc(F)cc1)N1CCOCC1 | > 34.8 |
| Nc1nc(COc2ccc(F)cc2)nc(N2CCCCC2)n1 | 1.9 (≈ 6.26 µM) |
| Cc1[nH]c2ccccc2c1SCC(=O)Nc1nccs1 | 4.8 (≈ 15.8 µM) |
| NC(=O)c1c(NC(=O)c2ccccc2)sc2c1CCC2 | 1.3 (≈ 4.54 µM) |
| O=C(NC1CCNCC1)C1CCCCC1 | > 31.5 |
| COc1ccc(/C=C/C(=O)NCCCNC(=O)/C=C/c2ccc(OC)c(OC)c2)cc1OC | 60 (≈ 132 µM) |
| Cc1csc(NC(=O)c2ccc(S(C)(=O)=O)cc2)n1 | > 44.5 |
| CC(C)Cn1c(SCC(=O)O)nnc1-c1cccc(S(=O)(=O)N2CCOCC2)c1 | > 66.1 |
| COc1cc(OC)cc(C(=O)N[C@H](C(=O)NC2CCCc3ccccc32)C(C)C)c1 (some centres undefined) | 1.9 (≈ 4.63 µM) |
| CC(C)(C)N(Cc1ccccc1)C(=O)COC(=O)c1ccc2ccccc2n1 | 3 (≈ 7.97 µM) |
| CCC1CN(C(=O)NCc2ccc(F)cc2)c2ccccc2O1 (centres undefined) | 37.4 (≈ 119 µM) |
| CN1C(=O)/C(=C/c2coc3ccc(O)cc3c2=O)SC1=S | < 0.7 |
| CSc1ncc(C(=O)Nc2cc(C)ccc2C)c(C)n1 | > 43.1 |
| Cl.c1ccc2c(c1)nc(N1CCCCC1)c1ccccc12 | 1.8 |

| Compound | solubility kinetic [µg/mL] |
| --- | --- |
| COC(=O)c1nc(-c2ccccc2)oc1N1CCOCC1 | > 43.2 |
| CN(CC(=O)Nc1ccc(Cl)cc1F)C1=NS(=O)(=O)c2ccccc21 | 7.8 (≈ 20.4 µM) |
| COc1ccccc1C(=O)N/C(=C\c1ccccc1)C(=O)NCc1ccco1 | > 56.5 |
| CSc1ncccc1C(=O)NCc1nnc2ccccn12 | > 44.9 |
| Cc1ccccc1Cn1c(C)cc(C)c(C#N)c1=O | 8.1 (≈ 32.1 µM) |
| Cc1c(-c2csc(N)n2)c2ccccc2n1C | 30.4 (≈ 125 µM) |
| Cl.Fc1ccc(CNCc2ccc3c(c2)OCO3)cc1 | > 44.4 |
| O=C(CN1C(=O)NC2(CCCCCCC2)C1=O)NCc1ccc(Cl)cc1 | 9.9 (≈ 26.2 µM) |
| NC(=O)COc1ccc(C(=O)/C=C2/C(=O)Nc3ccccc32)cc1 | 6.4 (≈ 19.9 µM) |
| CC(=O)N1CCc2[nH]c3ccc(C)cc3c2C1 | > 34.2 |
| CC(C)(C)C(=O)N1CCN(c2nc3ccccc3o2)CC1 | > 43.1 |
| CCCC(=O)c1cc2c(cc1NC(=O)c1ccccc1F)OCCO2 | < 0.7 |
| O=C1CSC(c2cccnc2)N1Cc1ccc(Cl)c(Cl)c1 (centres undefined) | 48.7 (≈ 144 µM) |
| O=S(=O)(NCCc1ccccc1)c1ccc(Br)cc1 | 3.5 (≈ 10.3 µM) |
| Br.O=C(CN1CCCCC1)c1ccccc1F | > 45.3 |
| CN1C[C@@H]2C[C@@H](c3cccn3-c3ccccn3)N3CCC[C@@]23C1=O | > 48.4 |
| COC(=O)c1[nH]c2c(c1C)C(=O)CC(c1cccc(OC)c1)C2 (centres undefined) | 2.1 (≈ 6.7 µM) |
| N=C1C(c2ccccc2)=C(O)CN1c1cccc2ccccc12 | > 45.1 |
| Cc1ccc(-c2nc3ncccc3o2)cc1NC(=O)c1ccccc1 | 0.3 (≈ 0.911 µM) |
| Cc1nn(C)c(C)c1NC(=O)COc1ccc(F)cc1Br | > 53.4 |
| CCOC(=O)c1cc(-c2csc(-c3ccc(C(C)(C)C)cc3)n2)on1 | 0.4 (≈ 1.12 µM) |
| NC(=O)CC[C@H](NC(=O)c1ccc(F)cc1)C(=O)N1CCN(Cc2ccc3c(c2)OCO3)CC1 | > 70.6 |
| O=C(Nc1ccc(Oc2cccc(C(F)(F)F)c2)nc1)c1cccs1 | < 0.4 |

— PubChem BioAssay AID1996
